The values that follow come from US20220160617A1, “COMPOSITIONS AND METHODS FOR IMPROVING SKIN HEALTH AND FOR THE TREATMENT AND PREVENTION OF DISEASES, DISORDERS AND CONDITIONS ASSOCIATED WITH PATHOGENIC MICROBES” (DermBiont, Inc., priority 2019, published 2022).

Where a SMILES comes first, the peptide text is derived from it.

The first experiment has as its system fungal or bacterial pathogens. In kind it is cell-based.
Details: not given
As for `O=[N+]([O-])O` [Nitrate], the “Concentration Range of Efficacy” value was in the range of 0.1 to 1 mM.

Staying with this experiment, now noted: components for enhancing function of human-derived Janthinobacterium lividum.
`OC[C@H]1O[C@@](CO)(O[C@H]2O[C@H](CO)[C@@H](O)[C@H](O)[C@H]2O)[C@@H](O[C@H]2O[C@H](CO)[C@@H](O)[C@H](O)[C@H]2O)[C@@H]1O` [D-Melezitose]: the “Concentration Range of Efficacy” value fell in the range of 1 to 5 mM. Still for that read-out and setting: with `N[C@@H](C(=O)O)[C@@H](O)[C@H](O)[C@H](O)CO` [D-Glucosaminic Acid] the figure was 2 to 20 mM; with `O=C(O)[C@H]1OC(O)[C@H](O)[C@@H](O)[C@@H]1O` (stereo partly drawn) [D-Glucoronic Acid], 2 to 20 mM.

Regarding `CO[C@H]1O[C@H](CO)[C@@H](O)[C@H](O)[C@H]1O` [α-Methyl-D-Glucoside], the “Concentration Range of Efficacy” value was in the range of 1 to 5 mM.

Consider `COC1OCC(O)C(O)C1O` [β-Methyl-D-Xyloside], for which the “Concentration Range of Efficacy” value lay in the range of 1 to 5 mM. Regarding Pectin, the “Concentration Range of Efficacy” value lay in the range of 1 to 5 mM. As to `OC[C@@H](O)C(O)[C@H](O)CO` [D-Arabitol], the “Concentration Range of Efficacy” value lay in the range of 1 to 5 mM. For the compound `C[C@H](N)C(=O)N[C@@H](CCC(=O)O)C(=O)O` [Ala-Glu] (H-Ala-Glu-OH), the “Concentration Range of Efficacy” value lay within 0.1 to 1 mM.

As to Maltotriose, the “Concentration Range of Efficacy” value was 2 to 20 mM. On the same count and under the same terms, the result for `OC[C@@H](O)[C@@H](O)CO` [i-Erythritol] reads 1 to 5 mM; that for `CO[C@@H]1O[C@H](CO)[C@@H](O)[C@H](O)[C@H]1O` [β-Methyl-D-Glucoside], 2 to 20 mM; that for `COC1OC(CO)C(O)C(O)C1O` [α-Methyl-D-Galactoside], 2 to 20 mM.

Turning to `O=C(O)[C@@H](O)[C@H](O)C(=O)O` [D-Tartaric acid], the “Concentration Range of Efficacy” value lay in the range of 1 to 5 mM.

In the case of Mannan, the “Concentration Range of Efficacy” value lay within 1 to 5 mM. Still for that read-out and setting: with `OC[C@@]12OC[C@@H](O1)[C@@H](O)[C@@H](O)[C@@H]2O` [Sedoheptulosan] the figure was 1 to 5 mM.

For `OC[C@@H](O)[C@@H](O[C@H]1O[C@H](CO)[C@@H](O)[C@H](O)[C@H]1O)[C@H](O)[C@@H](O)CO` [Maltitol], the “Concentration Range of Efficacy” value was 1 to 5 mM. Turning to `O=CC[C@H](O)[C@H](O)CO` [2-Deoxy-DRibose], the “Concentration Range of Efficacy” value was in the range of 1 to 5 mM. Still for that read-out and setting: with `CC(O)C(N)=O` (racemic) [D,L-Lactamide] the figure was 0.1 to 1 mM; with dextrin, 1 to 5 mM. On the same count and under the same terms, the result for `O=C1CCC(C(=O)O)O1` (stereo not drawn) [α-Hydroxy Glutaric Acid-g-Lactone] reads 2 to 20 mM.

As to `NC(N)=O` [Urea], the “Concentration Range of Efficacy” value was 0.1 to 1 mM. As to `O=C(O)[C@H](O)[C@@H](O)C(=O)O` [L-Tartaric acid], the “Concentration Range of Efficacy” value is 1 to 5 mM. On to `O=C(CO)[C@@H](O[C@H]1O[C@H](CO)[C@@H](O)[C@H](O)[C@H]1O)[C@H](O)[C@H](O)CO` [Turanose], for which the “Concentration Range of Efficacy” value is 1 to 5 mM. On the same count and under the same terms, with `OC[C@H]1O[C@H](OCC2O[C@@H](O)[C@H](O)[C@@H](O)[C@@H]2O)[C@H](O)[C@@H](O)[C@H]1O` (stereo partly drawn) [D-Melibiose] the figure was 2 to 20 mM; with `OC[C@H]1O[C@@H]2O[C@H]3[C@H](O)[C@@H](O)[C@@H](O[C@H]4[C@H](O)[C@@H](O)[C@@H](O[C@H]5[C@H](O)[C@@H](O)[C@@H](O[C@H]6[C@H](O)[C@@H](O)[C@@H](O[C@H]7[C@H](O)[C@@H](O)[C@@H](O[C@H]8[C@H](O)[C@@H](O)[C@@H](O[C@H]9[C@H](O)[C@@H](O)[C@@H](O[C@H]1[C@H](O)[C@H]2O)O[C@@H]9CO)O[C@@H]8CO)O[C@@H]7CO)O[C@@H]6CO)O[C@@H]5CO)O[C@@H]4CO)O[C@@H]3CO` [g-Cyclodextrin], 1 to 5 mM; with Chondroitin Sulfate C, 1 to 5 mM. The same measure, in the same setting: with `COC1OC(CO)C(O)C(O)C1O` [α-Methyl-D-Mannoside] the figure was 1 to 5 mM. Still for that read-out and setting: with Inulin the figure was 1 to 5 mM.
